“Also recorded” adds a separate entry of the source. Like-named read-outs stand apart in the source and are kept apart here.
Tests used:
Assay type in all cases: biochemical, H. sapiens
[1] = target: T1, TC-PTP (TCPTP1-317; TCPTP292 in FIG. 12) (Mus musculus, UniProt Q06180); test: TC-PTP-catalyzed hydrolysis of pNPP in the presence of terpenoids; conditions: TCPTP1-317
T1 construct: His-tag; made in house; host or cells: E. coli BL21 (DE3), pET16b
T1 sequence (Q06180 1-317): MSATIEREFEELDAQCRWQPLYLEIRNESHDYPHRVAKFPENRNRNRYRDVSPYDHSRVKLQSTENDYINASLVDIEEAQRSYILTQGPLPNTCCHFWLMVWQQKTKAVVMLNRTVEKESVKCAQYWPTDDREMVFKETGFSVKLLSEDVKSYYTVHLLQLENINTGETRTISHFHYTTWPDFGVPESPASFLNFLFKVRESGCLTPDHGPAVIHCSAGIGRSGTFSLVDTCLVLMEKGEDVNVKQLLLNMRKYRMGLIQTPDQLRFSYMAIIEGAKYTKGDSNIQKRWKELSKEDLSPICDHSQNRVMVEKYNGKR
Description: (§1) Enzyme kinetics. To examine terpenoid-mediated inhibition, we measured PTP-catalyzed hydrolysis of p-nitrophenyl phosphate (pNPP) or 4-methylumbelliferyl phosphate (4-MUP, used when KM for pNPP was large) in the presence of various concentrations of terpenoids. Each reaction included PTP (0.05 μM PTP1B/TCPTP or 0.1 μM SHP1/SHP2 in 50 mM HEPES, 0.5 mM TCEP, 50 μg/ml BSA), pNPP (0.33, 0.67, 2, 5, 10, and 15 mM) or 4-MUP (0.13, 0.27, 0.8, 2.27, 2.93, 4.53, 7.07, and 8 mM), inhibitor (with concentrations listed in the figures), buffer (50 mM HEPES pH=7.3, 50 μg/ml BSA), and DMSO at 10% v/v. We monitored the formation of p-nitrophenol by measuring absorbance at 405 nm every 10 seconds for 5 minutes on a SpectraMax M2 plate reader and the formation of 4-methylumbelliferyl by measuring fluorescence at 450 nm (370 nm ex, 435 nm cutoff, medium gain).
(§2) We used a custom MATLAB script to process all raw kinetic data. This script removed all concentration values that fell outside of either (i) the range of our standard curve (absorbance/fluorescence vs. μM; FIG. 39) or (ii) the initial rate regime (>10% of the pNPP or 4-MUP concentration used in the assay). When this step reduced kinetic dataset to fewer than ten points, we re-measured those datasets to collect at least ten. We fit final datasets, in turn, with a linear regression model (using Matlab's backslash operator).
(§3) We evaluated kinetic models in three steps: (i) We fit initial-rate measurements collected in the absence and presence of inhibitors to Michaelis-Menten and inhibition models, respectively (here, we used the nlinfit and fminsearch functions from MATLAB; TABLE 12). (ii) We used an F-test to compare the mixed model to the single-parameter model with the least sum squared error (here, we used the fedf function from MATLAB to assign p-values), and we accepted the mixed model when p<0.05. (iii) We used the Akaike's Information Criterion (AIC) to compare the best-fit single parameter model to each alternative single parameter model, and we accepted the “best-fit” model when the difference in AIC (Δi) exceed 5 for all comparisons.^78 We note: For AD, AB, and (+) 1-(10),4-cadinadiene this criterion was not met; both noncompetitive and uncompetitive models, however, yielded indistinguishable ICso's.
(§4) We used the MATLAB function “nlparci” to determine the confidence intervals of kinetic parameters, and we propagated those intervals to estimate corresponding confidence intervals for each IC50.

[2] = tested on: TC-PTP (TCPTP1-317; TCPTP292 in FIG. 12); test: as above; conditions: PTP1B321 vs TCPTP292 / TC-PTP, pNPP
Description: as §1, §2, §3, §4

[3] = target: T2, PTP1B1-281 (PTP1B282 in FIG. 12) (Homo sapiens, UniProt P18031); test: pNPP hydrolysis by PTP1B lacking the α7 helix; conditions: for Ki: PTP1B1-281
T2 construct: made in house; host or cells: E. coli BL21 (DE3)
T2 sequence (P18031 1-281): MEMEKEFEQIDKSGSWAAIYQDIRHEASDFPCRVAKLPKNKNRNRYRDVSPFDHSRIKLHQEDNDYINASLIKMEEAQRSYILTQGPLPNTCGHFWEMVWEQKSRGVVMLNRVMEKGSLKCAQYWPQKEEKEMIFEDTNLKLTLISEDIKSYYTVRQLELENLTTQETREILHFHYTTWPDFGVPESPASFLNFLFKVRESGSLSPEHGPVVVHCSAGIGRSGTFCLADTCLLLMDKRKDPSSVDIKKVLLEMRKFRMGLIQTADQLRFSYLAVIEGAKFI
Description: as §1, §2, §3, §4

[4] = mixed model, uncompetitive constant, read-out: Fit par. Ki,u, mixed model
[5] = noncompetitive model of inhibition, read-out: Fit par. Ki, noncompetitive model
[6] = uncompetitive model of inhibition, read-out: Fit par. Ki, uncompetitive model
[7] = competitive model of inhibition, read-out: Fit par. Ki, competitive model
[8] = mixed model, competitive constant, read-out: Fit par. Ki,c, mixed model

SMILES	Ki [1, 4]	Ki [1, 5]	Ki [1, 6]	potency against PTP1B relative to TC-PTP (selectivity from IC50's) [2]	potency against PTP1B relative to TC-PTP (selectivity from IC50's) ([2]; listed as AD)	Ki [3, 7]	Ki [3, 8]	Ki [3, 4]	Ki [3, 5]	Ki [3, 6]	potency against PTP1B282 (no α7 helix) relative to PTP1B321 ([3]; pNPP, less potent on PTP1B282)	Ki [1, 8]	potency against PTP1B relative to TC-PTP (selectivity from IC50's) ([2]; listed as AB)
C=C(C)[C@@H]1CC[C@@H](C)[C@@H]2CCC(C)=C[C@@H]21 [amorphadiene]	356 µM	400 µM	356 µM	~ five-fold; also recorded: much more potently	five- to six-fold	37.9 µM	157 µM	271 µM	244 µM	210 µM	~ four-fold	–	–
CC(C)=CCC=C(C)C1CC=C(C)CC1 (stereo not drawn) [α-bisabolene]	69.3 µM	76.2 µM	69.2 µM	much more potently	–	6.51 µM	39 µM	47.7 µM	46.3 µM	40 µM	–	3610 µM	five- to six-fold

From patent US12729458B2, “Discovery and evolution of biologically active metabolites” (The Regents of the University of Colorado, a Body Corporate, priority 2020, dated 2026)
